Results: US20250243171A1, “QUINAZOLINE COMPOUNDS FOR TREATMENT OF DISEASE” (Arthrosi Therapeutics, Inc., priority 2021, published 2025)

What was measured:
Experiment in all cases: EC50 assay: Ba/F3 stable cell proliferation (CCK-8, 72 h)
Assay type in all cases: cell-based
Ba/F3 stable cells [1] = biological target: T1, Ba/F3 stable cells (Homo sapiens, UniProt P00533, DUP767-769, cells depend on it); details: Ba/F3-EGFR V769-D770insASV cells
T1 construct: EC50 Ba/F3-EGFR V769-D770insASV; other: Ba/F3-EGFR V769-D770insASV cells, 72 h, CCK-8
T1 sequence (P00533 with tags, fused parts or gaps DUP767-769): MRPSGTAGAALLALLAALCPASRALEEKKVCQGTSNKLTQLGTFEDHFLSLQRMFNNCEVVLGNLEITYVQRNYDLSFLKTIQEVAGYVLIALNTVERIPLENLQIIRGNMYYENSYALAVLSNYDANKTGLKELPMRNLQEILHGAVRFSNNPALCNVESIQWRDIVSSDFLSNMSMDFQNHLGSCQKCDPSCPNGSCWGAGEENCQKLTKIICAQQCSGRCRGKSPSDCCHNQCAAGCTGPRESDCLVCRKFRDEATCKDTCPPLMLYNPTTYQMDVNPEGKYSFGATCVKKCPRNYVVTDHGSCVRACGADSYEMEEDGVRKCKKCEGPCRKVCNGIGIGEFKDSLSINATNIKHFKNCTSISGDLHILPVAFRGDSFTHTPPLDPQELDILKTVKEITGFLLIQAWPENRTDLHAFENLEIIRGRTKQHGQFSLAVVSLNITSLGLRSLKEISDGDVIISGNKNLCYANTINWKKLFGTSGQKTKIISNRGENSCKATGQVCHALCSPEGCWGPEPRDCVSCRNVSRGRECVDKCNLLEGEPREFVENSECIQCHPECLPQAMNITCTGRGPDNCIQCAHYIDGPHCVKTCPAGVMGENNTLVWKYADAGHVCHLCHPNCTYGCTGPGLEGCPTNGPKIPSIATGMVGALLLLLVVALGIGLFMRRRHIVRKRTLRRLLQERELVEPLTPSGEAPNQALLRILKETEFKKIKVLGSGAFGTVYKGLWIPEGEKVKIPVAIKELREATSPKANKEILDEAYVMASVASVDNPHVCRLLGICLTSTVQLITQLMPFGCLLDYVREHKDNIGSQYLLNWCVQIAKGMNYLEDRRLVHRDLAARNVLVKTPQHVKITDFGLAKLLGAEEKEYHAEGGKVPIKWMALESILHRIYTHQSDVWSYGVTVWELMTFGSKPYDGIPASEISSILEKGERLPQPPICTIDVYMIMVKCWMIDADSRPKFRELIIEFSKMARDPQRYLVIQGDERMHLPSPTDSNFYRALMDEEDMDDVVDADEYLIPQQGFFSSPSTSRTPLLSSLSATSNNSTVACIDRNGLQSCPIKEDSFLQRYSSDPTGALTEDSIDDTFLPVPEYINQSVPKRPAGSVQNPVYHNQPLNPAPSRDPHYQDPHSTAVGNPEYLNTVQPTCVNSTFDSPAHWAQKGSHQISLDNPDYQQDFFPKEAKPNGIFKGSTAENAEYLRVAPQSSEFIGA
Method in brief: (§1)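 Ba/F3 stable cells were seeded at 4,000 cells/90 μL/well in 96-well plates and held 2 h at 37° C. in 5% CO2, then given 10 μL of serially titrated compound (0.1% DMSO final). After 72 h at 37° C., CCK-8 reagent was added for 4 hours and absorbance read at 450 nm to derive EC50.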

Ba/F3 stable cells [2] = biological target: T2, Ba/F3 stable cells (Homo sapiens, UniProt P00533, DUP768-770, cells depend on it); details: Ba/F3-EGFR D770-N771insSVD cells
T2 construct: EC50 Ba/F3-EGFR D770-N771insSVD; other: Ba/F3-EGFR D770-N771insSVD cells, 72 h, CCK-8
T2 sequence (P00533 with tags, fused parts or gaps DUP768-770): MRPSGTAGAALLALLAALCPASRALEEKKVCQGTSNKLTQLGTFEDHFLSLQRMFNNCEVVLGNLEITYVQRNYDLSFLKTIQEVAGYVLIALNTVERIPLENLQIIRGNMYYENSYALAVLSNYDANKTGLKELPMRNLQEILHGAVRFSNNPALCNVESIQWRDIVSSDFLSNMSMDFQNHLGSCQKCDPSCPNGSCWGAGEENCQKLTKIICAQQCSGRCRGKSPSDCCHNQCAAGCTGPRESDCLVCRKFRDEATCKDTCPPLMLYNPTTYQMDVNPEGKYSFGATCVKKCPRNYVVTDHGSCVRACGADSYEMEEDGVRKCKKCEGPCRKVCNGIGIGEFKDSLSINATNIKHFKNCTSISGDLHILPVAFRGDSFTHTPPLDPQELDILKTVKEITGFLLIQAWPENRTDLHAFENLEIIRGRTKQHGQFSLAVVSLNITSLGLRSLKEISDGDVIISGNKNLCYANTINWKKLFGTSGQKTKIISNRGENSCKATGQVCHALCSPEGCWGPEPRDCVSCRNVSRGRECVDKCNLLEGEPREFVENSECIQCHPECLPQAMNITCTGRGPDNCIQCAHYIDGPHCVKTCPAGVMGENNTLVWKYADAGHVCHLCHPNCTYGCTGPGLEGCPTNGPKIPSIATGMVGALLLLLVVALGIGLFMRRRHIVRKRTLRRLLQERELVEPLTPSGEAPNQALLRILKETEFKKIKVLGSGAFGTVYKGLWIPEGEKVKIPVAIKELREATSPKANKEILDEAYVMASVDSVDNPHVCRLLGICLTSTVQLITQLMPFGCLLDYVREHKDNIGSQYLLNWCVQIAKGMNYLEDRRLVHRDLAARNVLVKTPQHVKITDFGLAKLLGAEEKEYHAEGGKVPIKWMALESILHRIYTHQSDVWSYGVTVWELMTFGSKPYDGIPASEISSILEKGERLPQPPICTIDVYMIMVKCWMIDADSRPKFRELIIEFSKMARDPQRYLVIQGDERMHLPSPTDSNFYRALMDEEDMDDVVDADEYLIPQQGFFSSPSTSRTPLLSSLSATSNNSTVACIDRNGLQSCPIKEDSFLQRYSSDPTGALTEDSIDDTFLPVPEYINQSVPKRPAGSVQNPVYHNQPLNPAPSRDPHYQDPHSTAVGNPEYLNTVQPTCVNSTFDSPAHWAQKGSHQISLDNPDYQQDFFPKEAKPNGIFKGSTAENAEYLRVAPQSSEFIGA
Method in brief: as §1

Ba/F3 stable cells [3] = biological target: T3, Ba/F3 stable cells (Homo sapiens, UniProt P00533, DUP771-773, cells depend on it); details: Ba/F3-EGFR H773-V774insNPH cells
T3 construct: EC50 Ba/F3-EGFR H773-V774insNPH; other: Ba/F3-EGFR H773-V774insNPH cells, 72 h, CCK-8
Method in brief: as §1

Ba/F3 stable cells [4] = biological target: T4, Ba/F3 stable cells (Homo sapiens, UniProt P00533, INS763FQEA, cells depend on it); details: Ba/F3-EGFR A763-Y764insFQEA cells
T4 construct: EC50 Ba/F3-EGFR A763-Y764insFQEA; other: Ba/F3-EGFR A763-Y764insFQEA cells, 72 h, CCK-8
T4 sequence (P00533 with tags, fused parts or gaps INS763FQEA): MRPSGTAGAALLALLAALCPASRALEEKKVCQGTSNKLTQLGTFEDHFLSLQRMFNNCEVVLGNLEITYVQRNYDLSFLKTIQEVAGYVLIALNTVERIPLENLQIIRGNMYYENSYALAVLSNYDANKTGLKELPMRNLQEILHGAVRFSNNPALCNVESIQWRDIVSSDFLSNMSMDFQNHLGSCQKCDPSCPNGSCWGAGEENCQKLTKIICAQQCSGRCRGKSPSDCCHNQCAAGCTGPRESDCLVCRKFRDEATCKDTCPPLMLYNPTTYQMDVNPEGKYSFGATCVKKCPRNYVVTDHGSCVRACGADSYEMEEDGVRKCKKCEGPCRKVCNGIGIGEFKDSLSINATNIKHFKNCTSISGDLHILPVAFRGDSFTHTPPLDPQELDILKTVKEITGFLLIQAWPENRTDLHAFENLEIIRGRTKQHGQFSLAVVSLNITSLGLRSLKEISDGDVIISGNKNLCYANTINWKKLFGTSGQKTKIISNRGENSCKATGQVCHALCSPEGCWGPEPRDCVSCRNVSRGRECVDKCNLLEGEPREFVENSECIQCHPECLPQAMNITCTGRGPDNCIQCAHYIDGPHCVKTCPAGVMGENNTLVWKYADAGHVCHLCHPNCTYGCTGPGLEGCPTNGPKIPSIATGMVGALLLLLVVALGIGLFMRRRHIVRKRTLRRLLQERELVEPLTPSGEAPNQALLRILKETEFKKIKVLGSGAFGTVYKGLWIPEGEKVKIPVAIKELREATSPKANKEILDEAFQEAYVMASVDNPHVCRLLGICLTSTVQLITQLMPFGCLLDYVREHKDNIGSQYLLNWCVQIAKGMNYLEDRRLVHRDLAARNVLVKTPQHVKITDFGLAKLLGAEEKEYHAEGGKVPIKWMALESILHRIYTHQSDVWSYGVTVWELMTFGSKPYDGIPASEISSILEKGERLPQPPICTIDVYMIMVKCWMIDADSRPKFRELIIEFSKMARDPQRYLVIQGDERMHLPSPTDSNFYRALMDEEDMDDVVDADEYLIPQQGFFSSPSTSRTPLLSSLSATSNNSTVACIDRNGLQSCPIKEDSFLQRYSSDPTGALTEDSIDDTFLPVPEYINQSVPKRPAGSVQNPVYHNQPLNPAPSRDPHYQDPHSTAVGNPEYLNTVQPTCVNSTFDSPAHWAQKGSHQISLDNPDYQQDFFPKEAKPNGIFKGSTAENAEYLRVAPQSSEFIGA
Method in brief: as §1

Ba/F3 stable cells [5] = biological target: T5, Ba/F3 stable cells (Homo sapiens, UniProt P00533, T790M/L858R, cells depend on it); details: Ba/F3-EGFR L858R-T790M cells
T5 construct: EC50 Ba/F3-EGFR L858R-T790M; other: Ba/F3-EGFR L858R-T790M cells, 72 h, CCK-8
Method in brief: as §1

Ba/F3 stable cells [6] = biological target: T6, Ba/F3 stable cells (Homo sapiens, UniProt P04626, DUP772-775, cells depend on it); details: Ba/F3-HER2 A775-G776insYVMA cells
T6 construct: EC50 Ba/F3-HER2 A775-G776insYVMA; other: Ba/F3-HER2 A775-G776insYVMA cells, 72 h, CCK-8
T6 sequence (P04626 with tags, fused parts or gaps DUP772-775): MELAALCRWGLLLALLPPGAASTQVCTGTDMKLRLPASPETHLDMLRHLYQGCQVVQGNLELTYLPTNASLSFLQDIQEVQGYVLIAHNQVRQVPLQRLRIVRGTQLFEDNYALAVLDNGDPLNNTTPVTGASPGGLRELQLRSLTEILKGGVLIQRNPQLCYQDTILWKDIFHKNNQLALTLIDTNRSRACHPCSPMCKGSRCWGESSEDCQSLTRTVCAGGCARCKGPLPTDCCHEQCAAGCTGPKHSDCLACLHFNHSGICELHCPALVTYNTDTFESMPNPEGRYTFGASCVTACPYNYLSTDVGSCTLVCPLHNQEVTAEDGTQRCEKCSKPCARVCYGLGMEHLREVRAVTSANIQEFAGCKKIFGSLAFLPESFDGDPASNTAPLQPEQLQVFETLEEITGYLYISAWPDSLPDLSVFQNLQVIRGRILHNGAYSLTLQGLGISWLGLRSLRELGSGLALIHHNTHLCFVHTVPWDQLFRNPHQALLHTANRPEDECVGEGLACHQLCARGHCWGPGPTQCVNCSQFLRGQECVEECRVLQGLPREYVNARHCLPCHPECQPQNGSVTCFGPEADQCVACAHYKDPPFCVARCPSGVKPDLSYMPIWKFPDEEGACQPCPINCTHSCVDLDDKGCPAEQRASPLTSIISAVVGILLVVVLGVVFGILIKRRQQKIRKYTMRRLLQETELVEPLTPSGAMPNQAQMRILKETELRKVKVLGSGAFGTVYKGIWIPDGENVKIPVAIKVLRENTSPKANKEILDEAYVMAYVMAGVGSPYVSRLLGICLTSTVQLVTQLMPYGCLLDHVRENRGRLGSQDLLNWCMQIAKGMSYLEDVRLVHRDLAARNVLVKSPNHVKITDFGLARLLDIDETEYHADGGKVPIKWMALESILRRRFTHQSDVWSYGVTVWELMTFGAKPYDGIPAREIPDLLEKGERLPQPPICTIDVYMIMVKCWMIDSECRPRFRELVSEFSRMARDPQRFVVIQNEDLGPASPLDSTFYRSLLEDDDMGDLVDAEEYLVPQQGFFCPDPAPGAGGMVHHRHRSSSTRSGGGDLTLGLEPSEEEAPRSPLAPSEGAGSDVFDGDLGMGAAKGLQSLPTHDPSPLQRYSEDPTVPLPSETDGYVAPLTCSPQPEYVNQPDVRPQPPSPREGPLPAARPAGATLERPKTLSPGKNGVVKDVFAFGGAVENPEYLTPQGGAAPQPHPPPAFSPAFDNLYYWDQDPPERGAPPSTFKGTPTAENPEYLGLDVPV
Method in brief: as §1

## C=CS(=O)(=O)N1CCC(Oc2c(OC)cc3ncnc4c3c2NC(=O)N4c2ccc(Cl)c(Cl)c2)CC1 [Compound 226, 3-(3,4-dichlorophenyl)-8-methoxy-9-((1-(vinylsulfonyl)piperidin-4-yl)oxy)-1H-pyrimido[4,5,6-de]quinazolin-2(3H)-one]
Ba/F3 stable cells [1]
  EC50: 200 to 1000 nM
Ba/F3 stable cells [2]
  EC50: 200 to 1000 nM
Ba/F3 stable cells [3]
  EC50: ≤ 200 nM
Ba/F3 stable cells [4]
  EC50: ≤ 200 nM
Ba/F3 stable cells [5]
  EC50: ≤ 200 nM
Ba/F3 stable cells [6]
  EC50: ≤ 200 nM

## C#CC(=O)N1CCC(Oc2c(OC)cc3ncnc4c3c2NC(=O)N4c2ccc(Cl)c(Cl)c2)CC1 [Compound 227, 3-(3,4-dichlorophenyl)-8-methoxy-9-((1-propioloylpiperidin-4-yl)oxy)-1H-pyrimido[4,5,6-de]quinazolin-2(3H)-one]
Ba/F3 stable cells [1]
  EC50: 200 to 1000 nM
Ba/F3 stable cells [2]
  EC50: 200 to 1000 nM
Ba/F3 stable cells [3]
  EC50: ≤ 200 nM
Ba/F3 stable cells [4]
  EC50: ≤ 200 nM
Ba/F3 stable cells [5]
  EC50: ≤ 200 nM
Ba/F3 stable cells [6]
  EC50: 200 to 1000 nM

## C=CC(=O)NC1COc2c(-c3cnc4ccccc4c3)c3c(N)ncnc3n2C1 (stereo not drawn) [Compound 228, N-(4-amino-5-(quinolin-3-yl)-8,9-dihydro-7H-pyrimido[5′,4′:4,5]pyrrolo[2,1-b][1,3]oxazin-8-yl)acrylamide]
Ba/F3 stable cells [1]
  EC50: 200 to 1000 nM
Ba/F3 stable cells [2]
  EC50: > 1000 nM
Ba/F3 stable cells [3]
  EC50: > 1000 nM
Ba/F3 stable cells [4]
  EC50: ≤ 200 nM
Ba/F3 stable cells [5]
  EC50: ≤ 200 nM
Ba/F3 stable cells [6]
  EC50: > 1000 nM
